# Assay results: patent publication US10689383B2, “Optionally fused heterocyclyl-substituted derivatives of pyrimidine useful for the treatment of inflammatory, metabolic, oncologic and autoimmune diseases” (NUEVOLUTION A/S, priority 2014, dated 2020)
# How the values were obtained:
# [1] = biological target: T1, human RORγt (Ligand Binding Domain) (Homo sapiens, UniProt P51449); assay: Fluorescence Polarization (FP) Assay; conditions: Fluorescence Polarization (FP) Assay; values given as upper bounds of activity ranges; read-out: FP activity range
# T1 construct: purchased Crelux (Planegg, Germany) batch no PC5032-1
# T1 sequence (P51449 269-508 limits assumed): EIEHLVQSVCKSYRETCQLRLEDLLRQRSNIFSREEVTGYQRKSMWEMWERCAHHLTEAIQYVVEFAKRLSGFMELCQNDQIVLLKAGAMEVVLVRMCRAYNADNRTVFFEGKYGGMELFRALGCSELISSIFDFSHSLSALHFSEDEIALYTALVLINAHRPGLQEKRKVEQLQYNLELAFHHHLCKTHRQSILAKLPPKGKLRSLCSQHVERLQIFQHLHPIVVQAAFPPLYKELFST
# Summary of the method: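 Binding to the ligand pocket followed by fluorescence polarization with a TAMRA-tagged RORγt ligand probe of 910 g/mole. Negative control wells received DMSO only.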
# [2] = biological target: T2, yeast Gal4-DNA binding domain fused to the ligand binding domain of human RORγ (Homo sapiens, UniProt P51449); assay: RORγ Reporter Assay (Gal4); format: cell-based; conditions: values given as lower bounds of ranges; for Gal4 activity range @ 0.1 μM (% inhibition): RORγ Reporter Assay (Gal4) at 0.1 μM; for Gal4 activity range @ 1 μM (% inhibition): RORγ Reporter Assay (Gal4) at 1 μM
# T2 construct: host or cells: HEK293t
# T2 sequence (P51449 269-508 limits assumed): T1 sequence (P51449 269-508 limits assumed)
# Summary of the method: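 Compound at final 1,000 or 100 nM (0.1% DMSO, triplicate) was added to the transfected HEK293t cells carrying a Gal4-UAS luciferase reporter for 24 h at 37 °C, 10% charcoal-stripped FBS. Activity reduction expressed as percent of vehicle-only luciferase signal.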
Compound,IC50 [1] [nM],Gal4 activity range @ 0.1 μM (% inhibition) [2] [% inhibition],Gal4 activity range @ 1 μM (% inhibition) [2] [% inhibition]
"OCCC1(CNc2ncnc(N3CCOC[C@@H]3c3ccc(C(F)(F)F)cc3)c2F)CCOCC1 [Example 239, 2-[4-[[[5-fluoro-6-[(3S)-3-[4-(trifluoromethyl)phenyl]morpholin-4-yl]pyrimidin-4-yl]amino]methyl]tetrahydropyran-4-yl]ethanol]",< 500,>20,>80
"O=S(=O)(CC(F)(F)F)N[C@H]1CC[C@H](CNc2ncnc(N3CCOC[C@@H]3c3ccc(OC(F)(F)F)cc3)c2F)CC1 [Example 285, 2,2,2-trifluoro-N-[4-[[[5-fluoro-6-[(3S)-3-[4-(trifluoromethoxy)phenyl]morpholin-4-yl]pyrimidin-4-yl]amino]methyl]cyclohexyl]ethane sulfonamide]",< 500,>0,>20
"Fc1c(NCC2(F)CCOCC2)ncnc1N1CCOC[C@@H]1c1ccc(C(F)(F)F)cc1 [Example 264, 5-fluoro-N-[(4-fluorotetrahydropyran-4-yl)methyl]-6-[(3S)-3-[4-(trifluoromethyl)phenyl]morpholin-4-yl]pyrimidin-4-amine]",< 500,>20,>80
"NC(=O)[C@@H](CC1CCOCC1)Nc1ncnc(N2CCCC2c2ccc(C(F)(F)F)cc2)c1F (stereo partly drawn) [Example 52, (2R)-2-[[5-fluoro-6-[2-[4-(trifluoromethyl)phenyl]pyrrolidin-1-yl]pyrimidin-4-yl]amino]-3-tetrahydropyran-4-yl-propanamide]",< 2000,,>80
"NC(=O)Cc1ccc(CNc2ncnc(N3CCCC3c3cccc(Br)c3)c2F)cc1 (stereo not drawn) [Example 305, 2-[4-[[[6-[2-(3-bromophenyl)pyrrolidin-1-yl]-5-fluoro-pyrimidin-4-yl]amino]methyl]phenyl]acetamide]",< 500,>50,>80
"Cc1ccc(C2CCCN2c2ncnc(NCc3ccc(CC(N)=O)cc3)c2F)o1 (stereo not drawn) [Example 313, 2-[4-[[[5-fluoro-6-[2-(5-methyl-2-furyl)pyrrolidin-1-yl]pyrimidin-4-yl]amino]methyl]phenyl]acetamide]",< 500,>20,>80
"CS(=O)(=O)N[C@H]1CC[C@H](CNc2ncnc(N3CCOC[C@@H]3c3ccc(OC(F)(F)F)cc3)c2F)CC1 [Example 267, N-[4-[[[5-fluoro-6-[(3S)-3-[4-(trifluoromethoxy)phenyl]morpholin-4-yl]pyrimidin-4-yl]amino]methyl]cyclohexyl] methanesulfonamide]",< 500,>80,>80
"O=C(O)Cc1ccc(CNc2ncnc(N3CCOCC3c3ccccc3)c2F)cc1 (stereo not drawn) [Example 276, 2-[4-[[[5-fluoro-6-(3-phenylmorpholin-4-yl)pyrimidin-4-yl]amino]methyl]phenyl]acetic acid]",< 2000,>0,>20
"OCC1CCC(CNc2ncnc(N3CCC[C@@H]3c3ccc(C(F)(F)F)cc3)c2F)CC1 (stereo partly drawn) [Example 225, [4-[[[5-fluoro-6-[(2R)-2-[4-(trifluoromethyl)phenyl]pyrrolidin-1-yl]pyrimidin-4-yl]amino]methyl]cyclohexyl] methanol]",< 500,>80,>80
"Fc1c(NC[C@H]2CC[C@H](Cc3nnn[nH]3)CC2)ncnc1N1CCC[C@@H]1c1ccc(C(F)(F)F)cc1 [Example 190, 5-fluoro-N-[[4-(1H-tetrazol-5-ylmethyl)cyclohexyl]methyl]-6-[(2R)-2-[4-(trifluoromethyl)phenyl]pyrrolidin-1-yl]pyrimidin-4-amine]",< 500,>80,>80

# The remaining lines, values ahead:
IC50 [1] [nM],Gal4 activity range @ 0.1 μM (% inhibition) [2] [% inhibition],Gal4 activity range @ 1 μM (% inhibition) [2] [% inhibition],Compound
< 1000,>20,>80,"Cc1ccc(CNc2ncnc(N3CCCC3c3ccc(OC(F)(F)F)cc3)c2F)cn1 (stereo not drawn) [Example 97, 5-fluoro-N-[(6-methyl-3-pyridyl)methyl]-6-[2-[4-(trifluoromethoxy)phenyl]pyrrolidin-1-yl]pyrimidin-4-amine]"
< 500,>50,,"Fc1c(NCc2ccc(Cl)nc2)ncnc1N1CCC[C@@H]1c1ccc(C(F)(F)F)cc1 [Example 183, N-[(6-chloro-3-pyridyl)methyl]-5-fluoro-6-[(2R)-2-[4-(trifluoromethyl)phenyl]pyrrolidin-1-yl]pyrimidin-4-amine]"
< 500,>50,,"O=C(O)Cc1ccc(CNc2ncnc(N3CCCC3c3ccc(OC(F)(F)F)cc3)c2F)cc1 (stereo not drawn) [Example 192, 2-[4-[[[5-fluoro-6-[2-[4-(trifluoromethoxy)phenyl]pyrrolidin-1-yl]pyrimidin-4-yl]amino]methyl]phenyl]acetic acid]"
< 1000,>50,>80,"Cc1ccc(CNc2ncnc(N3CCC[C@@H]3c3ccc(C(F)(F)F)cc3F)c2F)cn1 [Example 210, 5-fluoro-6-[(2R)-2-[2-fluoro-4-(trifluoromethyl)phenyl]pyrrolidin-1-yl]-N-[(6-methyl-3-pyridyl)methyl]pyrimidin-4-amine]"
< 2000,,>20,"Oc1ccc(CNc2ncnc(N3CCCC3c3ccc(C(F)(F)F)cc3)c2F)cn1 (stereo not drawn) [Example 100, 5-[[[5-fluoro-6-[2-[4-(trifluoromethyl)phenyl]pyrrolidin-1-yl]pyrimidin-4-yl]amino]methyl]pyridin-2-ol]"
< 500,,>80,"COc1ccc(C[C@@H](Nc2ncnc(N3CCCC3c3ccc(C(F)(F)F)cc3)c2F)C(N)=O)cc1 (stereo partly drawn) [Example 17, (2R)-2-[[5-fluoro-6-[2-[4-(trifluoromethyl)phenyl]pyrrolidin-1-yl]pyrimidin-4-yl]amino]-3-(4-methoxyphenyl)propanamide]"
< 500,>80,,"NC(=O)Cc1ccc(Cn2ccc3c(N4CCC[C@@H]4c4ccc(C(F)(F)F)cc4)ncnc32)cc1 [Example 196, 2-[4-[[4-[(2R)-2-[4-(trifluoromethyl)phenyl]pyrrolidin-1-yl]pyrrolo[2,3-d]pyrimidin-7-yl]methyl]phenyl]acetamide]"
< 10000,>0,>20,"O=C(O)Cc1ccc(CNc2ncnc(N3CCC[C@H]3c3ccc(C(F)(F)F)cc3)c2F)cc1 [Example 118, 2-[4-[[[5-fluoro-6-[(2S)-2-[4-(trifluoromethyl)phenyl]pyrrolidin-1-yl]pyrimidin-4-yl]amino]methyl]phenyl]acetic acid]"
< 500,>20,,"Fc1c(NCc2ccncc2)ncnc1N1CCCC1c1ccc(C(F)(F)F)cc1 (stereo not drawn) [Example 140, 5-fluoro-N-(4-pyridylmethyl)-6-[2-[4-(trifluoromethyl)phenyl]pyrrolidin-1-yl]pyrimidin-4-amine]"
< 10000,,>20,"Cn1cc(CNc2ncnc(N3CCCC3c3ccc(C(F)(F)F)cc3)c2F)cn1 (stereo not drawn) [Example 106, 5-fluoro-N-[(1-methylpyrazo1-4-yl)methyl]-6-[2-[4-(trifluoromethyl)phenyl]pyrrolidin-1-yl]pyrimidin-4-amine]"
< 500,>50,>80,"COc1cc(CNc2ncnc(N3CCCC3c3ccc(C(F)(F)F)cc3)c2F)ccn1 (stereo not drawn) [Example 113, 5-fluoro-N-[(2-methoxy-4-pyridyl)methyl]-6-[2-[4-(trifluoromethyl)phenyl]pyrrolidin-1-yl]pyrimidin-4-amine]"
< 500,,>0,"O=S(=O)(O)c1ccc(CNc2ncnc(N3CCC[C@@H]3c3ccc(C(F)(F)F)cc3)c2F)cc1 [Example 319, 4-[[[5-fluoro-6-[(2R)-2-[4-(trifluoromethyl)phenyl]pyrrolidin-1-yl]pyrimidin-4-yl]amino]methyl]benzenesulfonic acid]"
< 500,>50,>80,"Fc1c(NCc2ccc(Cn3cncn3)cc2)ncnc1N1CCCC1c1ccc(C(F)(F)F)cc1 (stereo not drawn) [Example 115, 5-fluoro-N-[[4-(1,2,4-triazol-1-ylmethyl)phenyl]methyl]-6-[2-[4-(trifluoromethyl)phenyl]pyrrolidin-1-yl]pyrimidin-4-amine]"
